Experimental data reported in patent publication US20260297164A1, “ANTI-FIBROTIC PEPTIDES AND USES THEREOF” (Deackt, Inc., priority 2021, published 2026).

B1: FasL: Soluble recombinant human FasL (protein, UniProt P48023 103-281, looked up)
extracellular domain: QLFHLQKELAELRESTSQMHTASSLEKQIGHPSPPPEKKELRKVAHLTGKSNSRSMPLEWEDTYGIVLLSGVKYKKGGLVINETGLYFVYSKVYFRGQSCNNLPLSHKVYMRNSKYPQDLVMMEGKMMSYCTTGQMWARSSYLGAVFNLTSADHLYVNVSELSLVNFEESQTFFGLYKL
modifications: extracellular domain soluble recombinant

Columns and labels:
[1] = test system: Col1a1 expression in CD148-deficient (Ptprj−/−) lung fibroblasts; assay: Col1a1 qPCR in CD148-deficient lung fibroblasts with NF-κB inhibitor; assay type: cell-based, mouse; settings: CD148-deficient cells, TGF-β1 10 ng/ml; Bay 11-7082 10 μM
Procedure: FIG. 4. CD148 deficiency enhances PI3K/Akt/mTOR signaling which results in enhanced NF-κB activation in lung fibroblasts. (A) WT and Ptprj−/− cells were stimulated with TGF-β1 (10 ng/ml) for 24 h. Cells were lysed and p-IKKα/β, p-IκB and IκB were measured by western blot (n=4). GAPDH was the standard. Bar graphs at right are the quantitation of corresponding proteins. (B) WT and Ptprj−/− cells were stimulated with TGF-β1 (10 ng/ml) for 24 h. Cells were subjected to cytosol and nuclear protein fractionation. The p65 (NF-κB subunit) nuclear translocation was measured by western blot (n=3). β-actin and PCNA were used as cytosolic and nuclear markers, respectively. Bar graphs at right are the quantitation of corresponding proteins. p65 cytosolic/nuclear ratio is shown (far right). Data are mean±s.e.m. *P<0.05, by Kurskal-Wallis non-parametric test (C-D) WT or Ptprj−/− cells were transfected with scr or shp62 (lentivirus). Cells were stimulated with TGF-β1 (10 ng/ml) in the presence or absence or wortmannin (wort, 50 nM) or rapamycin (rapa, 1 μM). At 24 h cells were harvested and subjected to qPCR for Col1a1 or Acta2 (n=5). […] Luciferase activity were measured as described in methods (n=4 or 7). […] (F) WT or Ptprj−/− cells were stimulated with TGF-β1 (10 ng/ml) in the presence or absence of the NF-κB inhibitor Bay 11-7082 (10 μM). mRNA levels of Col1a1 were measured by qPCR (n=5 for each condition). […]

[2] = test system: α-SMA in CD148-deficient (Ptprj−/−) lung fibroblasts; assay: α-SMA western blot in CD148-deficient lung fibroblasts with PI3K/mTOR inhibitors; assay type: cell-based, mouse; settings: CD148-deficient cells, TGF-β1 10 ng/ml; wortmannin 50 nM or rapamycin 1 μM, 24 h
Procedure: FIG. 3. CD148 deficiency enhances PI3K/Akt/mTOR signaling which results in low autophagy, high p62 expression in lung fibroblasts. (A) Mouse lung fibroblasts were isolated from Ptprj^fl/fl Col1a2^Cre-ER(T)+/0 mice (Ptprj−/−) and Col1a2^Cre-ER(T)+/0 mice (WT) and then treated with 4-OHT (1 μM) for 24 h. After 4-OHT treatment, cells were exposed to TGF-β1 (10 ng/ml) for 24 h. After stimulation, cells were harvested, and the expression of p-p85 (Tyr458), p-Akt (Ser473), pmTOR (Ser2448), p-p70 S6 kinase (Thr389), p-S6 ribosomal protein (Ser235/236) and CD148 (n=4 for each condition) in lysates was determined by Western immunoblotting and corresponding densitometry (ImageJ software). Data were normalized to corresponding dephospho-forms or GAPDH. (B) WT and Ptprj−/− cells were stimulated with TGF-β1 (10 ng/ml) for 24 h. Then cells were lysed and LC3-I and -II and p62 were measured by western blot (n=4). […] Then, autophagy flux was measured by LC3-II accumulation in the absence or presence of lysosomal acidification inhibitor chloroquine (25 μM) at 2, 4 and 6 h (n=4). […] LC3 puncta positive cells were quantified using ImageJ (D). […]
Polyacrylamide gel electrophoresis and immunoblotting were performed according to standard methods. […] The signals were detected by ECL (Thermo Fisher Scientific, Waltham, MA). […]

[3] = test system: IPF-derived lung fibroblasts; assay: FasL-induced cell death (MTT cell viability); assay type: cell-based, human; settings: FasL 100 and 200 ng/ml, 24 h
Procedure: FIG. 1. […] (A) CD148 protein expression levels were determined in lung homogenates from control (n=5) and IPF (n=5) patients. (Graphic) Densitometry (by ImageJ software). (B) Lung specimens from control (n=9) and IPF (n=10) patients were homogenized and subjected to total RNA isolation. Ptprj (CD148) mRNA levels were assessed using qPCR. (C) Single cell suspensions of control (n=6) and IPF (n=7) were enriched for fibroblasts. mRNA expression of CD148 in fibroblast-enriched cell populations were assessed using qPCR. (D) Representative fluorescence microscopy images of CD148 (Cy3, red), Vimentin (GFP, green) and DAPI (blue) in control (n=4) and IPF lung tissue (n=5). Scale bar=100 μm. […] CD148 fluorescence intensity was quantified by ImageJ. […] (E) CD148 protein levels were measured by western blot (n=3). (F) mRNA levels of fibronectin (Fn) and Collagen 1a1 (Col1a1) were measured using qPCR (n=5). […] After treatment, cell viability was determined using the MTT assay (n=5). […] Clusters labeled as fibroblast and myofibroblast were extracted from our previously published scRNA-seq data set and analysed using R-program. […] P values were calculated by Mann-Whitney unpaired test. (L) mRNA expression of CD148 in sorted AT1 and AT2 cells were assessed using qPCR. […] After treatment, cell viability was assessed with the MTT assay (n=4). […]
FIG. 6. […] (B) mRNA levels of Fn and Col1a1 were measured by qPCR (n=5). […]

Row | Molecule | increase of a-SMA in response to TGF-β1 [2] | other results
1 | Cc1ccc(S(=O)(=O)/C=C/C#N)cc1 [Bay 11-7082] | – | TGF-β1-dependent increase in Col1a1 expression [1]: inhibited
2 | CO[C@H]1C[C@@H]2CC[C@@H](C)[C@@](O)(O2)C(=O)C(=O)N2CCCC[C@H]2C(=O)O[C@H]([C@H](C)C[C@@H]2CC[C@@H](O)[C@H](OC)C2)CC(=O)[C@H](C)/C=C(\C)[C@@H](O)[C@@H](OC)C(=O)[C@H](C)C[C@H](C)/C=C/C=C/C=C/1C [rapamycin] | attenuated | –
3 | COC[C@H]1OC(=O)c2coc3c2[C@@]1(C)C1=C(C3=O)[C@@H]2CCC(=O)[C@@]2(C)C[C@H]1OC(C)=O [wortmannin] | attenuated | –
4 | B1 | – | cell death induced by Fas ligand [3]: resistant to cell death
